In PubChem BioAssay (NCI):
Where “and” joins values, the source holds several entries; their conditions need not be identical. Identical values can stand only once.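 Five concentrations, 48 hours, 96-well plates. Abbreviation: GI50, concentration required for 50% inhibition of growth. TGI marks complete inhibition of growth.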

Legend:
Experiment in all cases: NCI tumour cell line growth inhibition, 48 h
786-0 renal = system: 786-0 renal
A498 renal = system: A498 renal
A549 NSCLC = system: A549 NSCLC
ACHN renal = system: ACHN renal
CCRF-CEM leukemia = system: CCRF-CEM leukemia
COLO 205 colon = system: COLO 205 colon
DLD-1 colon = system: DLD-1 colon
DMS 273 small cell lung = system: DMS 273 small cell lung
EKVX NSCLC = system: EKVX NSCLC
HCC-2998 colon = system: HCC-2998 colon
HCT-116 colon = system: HCT-116 colon
HCT-15 colon = system: HCT-15 colon
HL-60(TB) leukemia = system: HL-60(TB) leukemia
HOP-18 NSCLC = system: HOP-18 NSCLC
HOP-62 NSCLC = system: HOP-62 NSCLC
HOP-92 NSCLC = system: HOP-92 NSCLC
HT29 colon = system: HT29 colon
IGROV1 ovarian = system: IGROV1 ovarian
K-562 leukemia = system: K-562 leukemia
KM12 colon = system: KM12 colon
KM20L2 colon = system: KM20L2 colon
LOX IMVI melanoma = system: LOX IMVI melanoma
LXFL 529 NSCLC = system: LXFL 529 NSCLC
M14 melanoma = system: M14 melanoma
M19-MEL melanoma = system: M19-MEL melanoma
MALME-3M melanoma = system: MALME-3M melanoma
MOLT-4 leukemia = system: MOLT-4 leukemia
NCI-H226 lung = system: NCI-H226 lung
NCI-H23 lung = system: NCI-H23 lung
NCI-H460 lung = system: NCI-H460 lung
NCI-H522 lung = system: NCI-H522 lung
OVCAR-3 ovarian = system: OVCAR-3 ovarian
OVCAR-4 ovarian = system: OVCAR-4 ovarian
OVCAR-5 ovarian = system: OVCAR-5 ovarian
OVCAR-8 ovarian = system: OVCAR-8 ovarian
RXF 393 renal = system: RXF 393 renal
RXF-631 renal = system: RXF-631 renal
SF-268 CNS = system: SF-268 CNS
SF-295 CNS = system: SF-295 CNS
SF-539 CNS = system: SF-539 CNS
SK-MEL-2 melanoma = system: SK-MEL-2 melanoma
SK-MEL-28 melanoma = system: SK-MEL-28 melanoma
SK-MEL-5 melanoma = system: SK-MEL-5 melanoma
SK-OV-3 ovarian = system: SK-OV-3 ovarian
SN12C renal = system: SN12C renal
SNB-19 CNS = system: SNB-19 CNS
SNB-75 CNS = system: SNB-75 CNS
SNB-78 CNS = system: SNB-78 CNS
SR leukemia = system: SR leukemia
SW-620 colon = system: SW-620 colon
TK-10 renal = system: TK-10 renal
U251 CNS = system: U251 CNS
UACC-257 melanoma = system: UACC-257 melanoma
UO-31 renal = system: UO-31 renal
XF 498 CNS = system: XF 498 CNS
BT-549 breast = system: BT-549 breast
DMS 114 small cell lung = system: DMS 114 small cell lung
DU-145 prostate = system: DU-145 prostate
HS 578T breast = system: HS 578T breast
MDA-MB-231 breast = system: MDA-MB-231 breast
MDA-MB-435 = system: MDA-MB-435
MDA-N = system: MDA-N
NCI/ADR-RES ovarian = system: NCI/ADR-RES ovarian
P388 leukemia = system: P388 leukemia
P388/ADR leukemia = system: P388/ADR leukemia
PC-3 prostate = system: PC-3 prostate
SN12K1 renal = system: SN12K1 renal
T-47D breast = system: T-47D breast

For CC(=O)C1=CCC2c3[nH]c4ccccc4c3CCN2C1 (stereo not given), the TGI (786-0 renal) was over 100 µM, the TGI (A498 renal) was over 100 µM and the TGI (A549 NSCLC) was over 100 µM. For the same compound, the TGI (ACHN renal) was over 100 µM, the TGI (CCRF-CEM leukemia) was over 100 µM and the TGI (COLO 205 colon) was over 100 µM. It also gave a TGI (DLD-1 colon) of over 100 µM, a TGI (DMS 273 small cell lung) of over 100 µM and a TGI (EKVX NSCLC) of over 100 µM. The TGI (HCC-2998 colon) was over 100 µM, the TGI (HCT-116 colon) was over 100 µM and the TGI (HCT-15 colon) was over 100 µM. It also gave a TGI (HL-60(TB) leukemia) of over 100 µM, a TGI (HOP-18 NSCLC) of over 100 µM and a TGI (HOP-62 NSCLC) of over 100 µM. The TGI (HOP-92 NSCLC) was over 100 µM, the TGI (HT29 colon) was over 100 µM and the TGI (IGROV1 ovarian) was over 100 µM. The TGI (K-562 leukemia) was 91.3 µM, the TGI (KM12 colon) was over 100 µM and the TGI (KM20L2 colon) was 46.2 µM. It also gave a TGI (LOX IMVI melanoma) of over 100 µM, a TGI (LXFL 529 NSCLC) of over 100 µM and a TGI (M14 melanoma) of over 100 µM. The TGI (M19-MEL melanoma) was over 100 µM, the TGI (MALME-3M melanoma) was over 100 µM and the TGI (MOLT-4 leukemia) was over 100 µM. For the same compound, the TGI (NCI-H226 lung) was over 100 µM, the TGI (NCI-H23 lung) was over 100 µM and the TGI (NCI-H460 lung) was over 100 µM. The TGI (NCI-H522 lung) was 65.6 µM, the TGI (OVCAR-3 ovarian) was over 100 µM and the TGI (OVCAR-4 ovarian) was over 100 µM. It also gave a TGI (OVCAR-5 ovarian) of over 100 µM, a TGI (OVCAR-8 ovarian) of over 100 µM and a TGI (RXF 393 renal) of over 100 µM. It also gave a TGI (RXF-631 renal) of over 100 µM, a TGI (SF-268 CNS) of over 100 µM and a TGI (SF-295 CNS) of over 100 µM. It also gave a TGI (SF-539 CNS) of over 100 µM, a TGI (SK-MEL-2 melanoma) of over 100 µM and a TGI (SK-MEL-28 melanoma) of over 100 µM. The TGI (SK-MEL-5 melanoma) was over 100 µM, the TGI (SK-OV-3 ovarian) was 75.6 µM and the TGI (SN12C renal) was over 100 µM. The TGI (SNB-19 CNS) was over 100 µM, the TGI (SNB-75 CNS) was 88.3 µM and the TGI (SNB-78 CNS) was over 100 µM. For the same compound, the TGI (SR leukemia) was over 100 µM, the TGI (SW-620 colon) was over 100 µM and the TGI (TK-10 renal) was over 100 µM. For the same compound, the TGI (U251 CNS) was over 100 µM, the TGI (UACC-257 melanoma) was over 100 µM and the TGI (UO-31 renal) was over 100 µM. For the same compound, the TGI (XF 498 CNS) was over 100 µM.

CCCCCC(O)C1C(=O)OC(C)C(O)/C=C/C=C/C=C/C=C/C=C(\C)C(O)C(O)C(O)CC(O)CC(O)CC(O)CC(O)CC1O (stereo not given) gave a TGI (786-0 renal) of over 100 µM, a TGI (ACHN renal) of over 100 µM and a TGI (BT-549 breast) of over 100 µM. The TGI (DLD-1 colon) was 3.32 µM, the TGI (DMS 114 small cell lung) was 2.92 µM and the TGI (DMS 273 small cell lung) was 2.84 µM. The TGI (DU-145 prostate) was over 100 µM, the TGI (HCC-2998 colon) was 3.26 µM and the TGI (HCT-15 colon) was 5.93 µM. The TGI (HL-60(TB) leukemia) was over 100 µM, the TGI (HOP-18 NSCLC) was 4.61 µM and the TGI (HOP-92 NSCLC) was 3.21 µM. For the same compound, the TGI (HS 578T breast) was over 100 µM, the GI50 (KM12 colon) was 11.8 µM and 1.77 µM and the TGI (KM20L2 colon) was 5.64 µM. The TGI (M14 melanoma) was over 100 µM, the TGI (M19-MEL melanoma) was 2.59 µM and the TGI (MDA-MB-231 breast) was over 100 µM. For the same compound, the TGI (MDA-MB-435) was over 100 µM, the TGI (MDA-N) was over 100 µM and the TGI (NCI-H460 lung) was 3.44 µM. It also gave a TGI (NCI-H522 lung) of 3.3 µM, a TGI (NCI/ADR-RES ovarian) of 3.73 µM and a TGI (OVCAR-4 ovarian) of 3.25 µM. For the same compound, the TGI (P388 leukemia) was 2.42 µM, the TGI (P388/ADR leukemia) was 3.8 µM and the TGI (PC-3 prostate) was over 100 µM. The TGI (RXF 393 renal) was 1.89 µM, the TGI (SN12K1 renal) was 2.97 µM and the TGI (SNB-78 CNS) was 4.69 µM. The TGI (SR leukemia) was over 100 µM, the TGI (T-47D breast) was over 100 µM and the TGI (TK-10 renal) was over 100 µM. The TGI (UO-31 renal) was 3.27 µM and the TGI (XF 498 CNS) was 2.84 µM.
